Measured values from patent US6428950B1, “Assay to identify compounds that alter apolipoprotein E expression” (Scios Inc., priority 1998, dated 2002).

Assays:
[1] = system: organotypic hippocampal cultures; assay: apoE release from organotypic hippocampal brain slice cultures; assay type: cell-based, rat; conditions: for inhibition of apoE: organotypic hippocampal brain slice cultures, FIG. 7
Protocol: Eight day old neonatal rat or mouse pups were quickly decapitated with scissors, serrated on one edge, in an aseptic fume hood. The brain was rapidly removed to buffered dissection media containing 100 ml MEM, 1 ml penicillin/streptomycin, 1 ml Tris 100×stock (10 mm final, pH 7.2), sterile filtered and chilled. The hippocampi and cortices were isolated under a dissecting microscope and transported in dissection media to a sterile fume hood. Tissue was positioned on the stage of a MacIllwain tissue chopper with a sterile paint brush, and 400 μm sections were made. Approximately 30 sections per animal were be obtained. Sections were separated by vigorously swirling the petri dish containing the sections in culture media, containing 25% horse serum, 25% Hank's media, 50% minimal essential media, 1 ml penicillin/streptomycin, 0.5 ml L-glutamine. Sections were inspected with a dissecting microscope and damaged tissue removed. The selected sections were manipulated in drops of dissecting media with Pasteur pipettes which had been scored and broken, then fire polished, to produce appropriate diameter bores, and placed on Millipore culture plate inserts set into 35 mm plate containing 1 ml culture media or 6 well plates containing 1.2 ml culture media. Plates containing inserts and media had been pre-equilibrated to 37° C. and 5% CO2. Three to six slices were positioned on each insert. Excess media was drawn off the slice, and the culture placed in a 37° C., 5% CO2 incubator. Cultures were maintained for up to 3 months. Media was changed at 24 hours, and at 3-4 day intervals.
Media was pre-equilibrated in plates at 37° C., 5% CO2. Culture inserts holding 3 rat organotypic brain slices obtained from 8 day old animals and maintained in culture for 2 weeks were transferred to the media containing test solution. […]
After treatment, medium is harvested and assayed for apoE levels using immunoassays such as ELISA or Western blot. Cell lysates prepared from the treated brain slices and analyzed for cell-associated apoE using the same assays.

BV-2 microglial cells = assay: basal apoE production from BV-2 microglial cell cultures; assay type: cell-based, murine; conditions: no β-amyloid treatment, FIG. 5
Source text: Microglial cell lines were used to evaluate changes in apoE expression. Microglial cell lines for use in the method of the invention include murine lines, e.g. BV-2 cell line (Blasi et al. J. Neuroimmunol. 27:229-237 (1990) and the N9 cell line (Corradin et al. Glia 7:255-262 (1993) or human lines such as those described in Janabi et al. Neurosci. Lett. 195:105-108 (1995). The microglial cell lines used were obtained from the investigators who isolated the lines. Astroglial continuous cell lines were also utilized in the assay, e.g. the human U373-MG line or the rodent lines C6 and DI TNC1. All of these astrocytic lines were obtained, from the American Tissue Culture Collection cell repository (Rockville, Md.).
To screen for inhibitors of apoE secretion or production using cultured brain cells, wells containing cultures were incubated in serum-free medium or medium containing reduced serum concentrations (1 to 0.1%) for various periods of time anywhere from 1-72 hours in the presence of the test compound. For some inhibitors, such as HMG CoA reductase and farnesylation inhibitors, pre-treatment of the cultures with the compound for 4-16 hours in serum-containing growth medium was used to maximize the effectiveness of the assay. Cultures were treated with β-amyloid to stimulate apoE levels in the test paradigm. […]

[2] = system: murine mixed primary glia; assay: basal apoE production from murine mixed primary glia cultures; assay type: cell-based; conditions: no β-amyloid treatment, FIG. 5
Source text: Primary mixed glial cultures, purified primary astrocyte, and purified primary microglial cultures prepared from rodent or human brain tissue (generally fetal) were used in the test assay. A variety of preparation methods can be used to isolate primary glial cultures, both mixed and purified for astroglial or microglial cell types. See e.g. McCarthy and de Vellis, J. Cell Biol. 85:890-902 (1980); Levinson & McCarthy in Culturing Nerve Cells, MIT Press, Cambridge, Mass. at 309-336 (1991); Hu et al. J. Biol. Chem. 271:2543-2547 (1996); Stone et al. Exptl. Neurol. 143:313-318 (1997); Barger et al. Mol. Brain Res. 40:116-126 (1996); and Manthorpe et al. J. Neurocytol. 8:605-621 (1979). Also, primary glial cultures can be prepared which include neurons, such as in the procedure described by Messmer-Joudrier et al. Eur. J. Neurosci. 8: 2652-2661 (1996). For primary cell cultures, different brain regions were used to isolate the cells. Hippocampal, cortical, cerebellar or brain stem cultures were prepared. Primary and continuous cell lines were plated into wells of a multi-well plate at a subconfluent density for the assay. Typically, the cultures were used within 1-2 days of initial plating. […]

| Compound | apoE release ([1]; organotypic hippocampal cultures, 24, 48, 72 hours after treatment, FIG. 6) | basal apoE levels (BV-2 microglial cells) | basal apoE levels [2] | inhibition of apoE [1] | inhibition of apoE ([1]; listed as NaSalicylate) |
| --- | --- | --- | --- | --- | --- |
| COC(=O)[C@H](CC(C)C)NC(=O)c1ccc(NC[C@@H](N)CS)cc1-c1ccccc1 [GGTI-286] | inhibitory effect on apoE release | reduced basal apoE levels | reduced basal apoE levels | – | – |
| O=C([O-])c1ccccc1O.[Na+] [sodium salicylate] | – | – | – | time- and dose-dependent inhibition of apoE | dose dependent inhibition of apoE |
